Reference: patent US8362018B2, “Substituted imidazo[1,2-a]pyrazine compounds useful for the treatment of viral infections” (Biofocus DPI, Ltd., priority 2007, dated 2013)

Key:
HCV replicon = assay: anti-viral assay (EC50), Table 13; assay type: cell-based; conditions: anti-viral assays
Source text: The ability of a compound to inhibit HCV replication can be measured in vitro or using animal models using models and assays well known to those of skill in the art (e.g. Pietschmann et al, Clin Liver Dis. 7(1)c23-43, 2003). In vitro techniques for measuring the ability of a compound to inhibit HCV replication involve using HCV or an HCV replicon. Because HCV is difficult to grow in culture, particular in vitro techniques employ an HCV replicon.
An HCV replicon is an RNA molecule able to autonomously replicate in a cultured cell, such as Huh7. The HCV replicon expresses the HCV derived components of the replication machinery and contains cis-elements required for replication in a cultured cell. […]

[1] = cytotoxicity measurement (CC50), Table 13; assay type: cell-based; conditions: human, Huh7 cells
HCV = assay: antiviral profiling, HCV in Huh7 cells (Table 14); assay type: cell-based; conditions: Hepatitis C virus, Huh-7
CVB-2 = assay: antiviral profiling, CVB-2 in Vero cells (Table 14); assay type: cell-based, coxsackie B virus
Sb-1 = assay: microbe, parasite or virus in culture; assay type: cell-based, poliovirus; conditions: Enterovirus C, Vero
YFV = assay: microbe, parasite or virus in culture; assay type: cell-based; conditions: Yellow fever virus, BHK-21
Influenza = assay: antiviral profiling, Influenza in MDCK cells (Table 14); assay type: cell-based
RSV = assay: antiviral profiling, RSV in Vero cells (Table 14); assay type: cell-based; conditions: human respiratory syncytial virus
VSV = assay: microbe, parasite or virus in culture; assay type: cell-based; conditions: Vesicular stomatitis virus, Vero
HSV-1 = assay: antiviral profiling, HSV-1 in Vero cells (Table 14); assay type: cell-based; conditions: Human alphaherpesvirus 1; HSV-1, Vero cells
HIV = assay: antiviral profiling, HIV in MT-4 cells (Table 14); assay type: cell-based; conditions: Human immunodeficiency virus 1, MT4
[2] = cytotoxicity CC50 in Huh7 cells (Table 14); assay type: cell-based; conditions: human, HCV column
[3] = cytotoxicity CC50 in MT-4 cells (Table 14); assay type: cell-based; conditions: human, HIV column
HRV-2 = assay: antiviral activity, HRV-2 in HeLa cells (Table 15); assay type: cell-based, human rhinoviruses (HRV); conditions: Rhinovirus A, HRV2; HRV-2 (HeLa cells)
HRV-14 = assay: antiviral activity, HRV-14 in HeLa cells (Table 15); assay type: cell-based, human rhinovirus 14 (HRV-14); conditions: Rhinovirus B, HRV14; HRV-14 (HeLa cells)
HRV clinical isolate = assay: antiviral activity, HRV clinical isolate in HeLa cells (Table 15); assay type: cell-based, human rhinoviruses (HRV); conditions: Enterovirus
[4] = cytotoxicity CC50 in HeLa cells (Table 15); assay type: cell-based; conditions: human, HRV-2 column
HeLa cells = assay: cytotoxicity CC50 in HeLa cells (Table 15); assay type: cell-based
in vitro [5] = conditions: African green monkey
in vitro [6] = conditions: Syrian hamster
Vero = assay: cytotoxicity CC50 in Vero cells (Table 14)
[7] = cytotoxicity CC50 in MDCK cells (Table 14); conditions: dog
Huh7 = assay: cytotoxicity measurement (CC50), Table 13; assay type: cell-based

NS(=O)(=O)c1ccc(CNc2nccn3c(-c4ccc(O)cc4)cnc23)cc1 [Compound 1, 4-{[3-(4-Hydroxy-phenyl)-imidazol[1,2-a]pyrazin-8-ylamino]-methyl}-benzenesulfonamide]
EC50 (HCV replicon; Hepatitis C virus): < 1 µM
CC50 [1]: > 35 µM
EC50 (HCV): < 1 µM
EC50 (CVB-2): < 1 µM
EC50 (Sb-1): < 1 µM
EC50 (YFV): 1 to 20 µM
EC50 (Influenza): > 20 µM
EC50 (RSV): > 20 µM
EC50 (VSV): > 20 µM
EC50 (HSV-1): > 20 µM
EC50 (HIV): 1 to 20 µM
CC50 [2]: > 35 µM
CC50 [3]: < 35 µM
EC50 (HRV-2): < 1 µg/mL
EC50 (HRV-14): < 1 µg/mL
EC50 (HRV clinical isolate): < 1 µg/mL
CC50 [4]: > 35 µg/mL
CC50(μg/mL) (HeLa cells; HRV clinical isolate column): * (>35 μg/mL)
CC50(μg/mL) (HeLa cells; HRV-14 column): * (>35 μg/mL)
CC50 (in vitro [5]): > 35 µM
CC50 (in vitro [5]; Vero cells): > 35 µM
CC50 (in vitro [6]): < 35 µM
CC50 (Vero; HSV-1): > 35 µM
CC50 (Vero; RSV column): > 35 µM
CC50 (Vero; Sb-1 column): > 35 µM
CC50 [7]: > 35 µM

CC(=O)Nc1cccc(-c2cnc3c(NCc4ccc(S(N)(=O)=O)cc4)nccn23)c1 [Compound 87]
EC50 (HCV replicon; Hepatitis C virus): 1 to 20 µM
CC50 [1]: < 35 µM

Cc1cc(-c2cnc3c(NCc4ccc(S(N)(=O)=O)cc4)nccn23)ccc1O [Compound 88, 4-{[3-(4-Hydroxy-3-methyl-phenyl)-imidazo[1,2-a]pyrazin-8-ylamino]-methyl}-benzenesulfonamide]
EC50 (HCV replicon; Hepatitis C virus): < 1 µM
CC50 [1]: > 35 µM

NS(=O)(=O)c1ccc(CNc2nccn3c(-c4ccc(O)c(O)c4)cnc23)cc1 [Compound 89]
EC50 (HCV replicon; Hepatitis C virus): > 20 µM
CC50 [1]: > 35 µM

NS(=O)(=O)c1ccc(CNc2nccn3c(-c4ccc(O)cc4F)cnc23)cc1 [Compound 91, 4-{[3-(2-Fluoro-4-hydroxy-phenyl)-imidazo[1,2-a]pyrazin-8-ylamino]-methyl}-benzenesulfonamide]
EC50 (HCV replicon; Hepatitis C virus): < 1 µM
CC50 [1]: > 35 µM

COc1ccc(-c2cnc3c(NCc4ccc(C(=O)O)cc4)nccn23)cc1OC [Compound 92, 4-{[3-(3,4-Dimethoxy-phenyl)-imidazo[1,2-a]pyrazin-8-ylamino]-methyl}-benzoic acid]
EC50 (HCV replicon; Hepatitis C virus): 1 to 20 µM
CC50 [1]: > 35 µM

COc1ccc(-c2cnc3c(NCc4ccc(CO)cc4)nccn23)cc1OC [Compound 93, (4-{[3-(3,4-Dimethoxy-phenyl)-imidazol[1,2-a]pyrazin-8-ylamino]-methyl}-phenyl)-methanol]
EC50 (HCV replicon; Hepatitis C virus): 1 to 20 µM
CC50 [1]: > 35 µM

NC(=O)c1cc(-c2cnc3c(NCc4ccc(S(N)(=O)=O)cc4)nccn23)ccc1O [Compound 94, 2-Hydroxy-5-[8-(4-sulfamoyl-benzylamino)-imidazo[1,2-a]pyrazin-3-yl]-benzamide]
EC50 (HCV replicon; Hepatitis C virus): 1 to 20 µM
CC50 [1]: > 35 µM

NS(=O)(=O)c1cccc(CNc2nccn3c(-c4ccc(O)cc4)cnc23)c1 [Compound 95, 3-{[3-(4-Hydroxy-phenyl)-imidazol[1,2-a]pyrazin-8-ylamino]-methyl}-benzenesulfonamide]
EC50 (HCV replicon): 1 to 20 µM
CC50 (Huh7): < 35 µM

Oc1ccc(-c2cnc3c(Nc4ccccc4)nccn23)cc1 [Compound 96]
EC50 (HCV replicon; Hepatitis C virus): > 20 µM
CC50 [1]: > 35 µM

COc1ccc(-c2cnc3c(NCc4ccc(Cl)cc4)nccn23)cc1OC [Compound 97]
EC50 (HCV replicon; Hepatitis C virus): 1 to 20 µM
CC50 [1]: < 35 µM

CC(C)(C)c1ccc(CNc2nccn3c(-c4ccc(O)cc4)cnc23)cc1 [Compound 98]
EC50 (HCV replicon; Hepatitis C virus): 1 to 20 µM
CC50 [1]: < 35 µM

Oc1ccc(-c2cnc3c(NCc4cccc(Cl)c4)nccn23)cc1 [Compound 99]
EC50 (HCV replicon; Hepatitis C virus): 1 to 20 µM
CC50 [1]: < 35 µM

CNS(=O)(=O)c1ccc(CNc2nccn3c(-c4ccc(OC)cc4)cnc23)cc1 [Compound 100]
EC50 (HCV replicon; Hepatitis C virus): 1 to 20 µM
CC50 [1]: > 35 µM

CCNS(=O)(=O)c1ccc(CNc2nccn3c(-c4ccc(OC)cc4)cnc23)cc1 [Compound 101]
EC50 (HCV replicon; Hepatitis C virus): 1 to 20 µM
CC50 [1]: > 35 µM

CCNS(=O)(=O)c1ccc(CNc2nccn3c(-c4ccc(O)cc4)cnc23)cc1 [Compound 102]
EC50 (HCV replicon; Hepatitis C virus): 1 to 20 µM
CC50 [1]: > 35 µM

CNS(=O)(=O)c1ccc(CNc2nccn3c(-c4ccc(O)cc4)cnc23)cc1 [Compound 103]
EC50 (HCV replicon; Hepatitis C virus): 1 to 20 µM
CC50 [1]: > 35 µM

Cc1nc2c(NCc3ccc(S(N)(=O)=O)cc3)nccn2c1-c1ccc(O)cc1 [Compound 104, 4-{[3-(4-Hydroxy-phenyl)-2-methyl-imidazo[1,2-a]pyrazin-8-ylamino]-methyl}-benzenesulfonamide]
EC50 (HCV replicon; Hepatitis C virus): 1 to 20 µM
CC50 [1]: > 35 µM

COc1cc(-c2c(C)nc3c(NCc4ccc(S(N)(=O)=O)cc4)nccn23)ccc1O [Compound 105]
EC50 (HCV replicon; Hepatitis C virus): < 1 µM
CC50 [1]: > 35 µM

Cc1nc2c(NCc3ccc(S(N)(=O)=O)cc3)nccn2c1-c1ccc(O)c(F)c1 [Compound 106]
EC50 (HCV replicon; Hepatitis C virus): < 1 µM
CC50 [1]: > 35 µM
EC50 (HRV-2): < 1 µg/mL
EC50 (HRV-14): < 1 µg/mL
EC50 (HRV clinical isolate): < 1 µg/mL
CC50 [4]: > 35 µg/mL
CC50(μg/mL) (HeLa cells; HRV clinical isolate column): * (>35 μg/mL)
CC50(μg/mL) (HeLa cells; HRV-14 column): * (>35 μg/mL)

Cc1nc2c(NCc3ccc(S(N)(=O)=O)cc3)nccn2c1-c1ccc(O)c([N+](=O)[O-])c1 [Compound 107]
EC50 (HCV replicon; Hepatitis C virus): 1 to 20 µM
CC50 [1]: > 35 µM

Cc1cnc(NCc2ccc(S(N)(=O)=O)cc2)c2ncc(-c3ccc(O)cc3)n12 [Compound 108, 4-{[3-(4-Hydroxy-phenyl)-5-methyl-imidazo[1,2-a]pyrazin-8-ylamino]-methyl}-benzenesulfonamide]
EC50 (HCV replicon; Hepatitis C virus): < 1 µM
CC50 [1]: < 35 µM

COc1cc(-c2cnc3c(NCc4ccc(S(N)(=O)=O)cc4)ncc(C)n23)ccc1O [Compound 109]
EC50 (HCV replicon; Hepatitis C virus): < 1 µM
CC50 [1]: < 35 µM

Cc1cn2c(-c3ccc(O)cc3)cnc2c(NCc2ccc(S(N)(=O)=O)cc2)n1 [Compound 110, 4-{[3-(4-Hydroxy-phenyl)-6-methyl-imidazo[1,2-a]pyrazin-8-ylamino]-methyl}-benzenesulfonamide]
EC50 (HCV replicon; Hepatitis C virus): < 1 µM
CC50 [1]: < 35 µM

Cc1cn2c(-c3ccc(O)c(F)c3)cnc2c(NCc2ccc(S(N)(=O)=O)cc2)n1 [Compound 111]
EC50 (HCV replicon; Hepatitis C virus): < 1 µM
CC50 [1]: > 35 µM

COc1cc(-c2cnc3c(NCc4ccc(S(N)(=O)=O)cc4)nc(C)cn23)ccc1O [Compound 112]
EC50 (HCV replicon; Hepatitis C virus): < 1 µM
CC50 [1]: < 35 µM

NS(=O)(=O)c1ccc(CNc2nc(Br)cn3c(Br)cnc23)cc1 [Compound 113, 4-[(3,6-Dibromo-imidazo[1,2-a]pyrazin-8-ylamino)-methyl]-benzenesulfonamide]
EC50 (HCV replicon; Hepatitis C virus): > 20 µM
CC50 [1]: > 35 µM

NS(=O)(=O)c1ccc(CNc2nc(-c3ccc(O)cc3)cn3c(-c4ccc(O)cc4)cnc23)cc1 [Compound 114, 4-{[3,6-Bis-(4-hydroxy-phenyl)-imidazo[1,2-a]pyrazin-8-ylamino]-methyl}-benzenesulfonamide]
EC50 (HCV replicon; Hepatitis C virus): < 1 µM
CC50 [1]: < 35 µM
